The subject of data set [1] is SH-SY5Y. The experiment in a line: Neuroprotective activity against amyloid beta(25 to 35)-induced neurotoxicity in human SH-SY5Y cells assessed as cell viability at 10 uM (reference value: 62.1 +/- 2.2%). Type of data set: functional. Particulars: for viability at 10 µM: read-out: Activity.
The test system of data set [2] is SH-SY5Y. The experiment in a line: Neuroprotective activity against H2O2-induced neurotoxicity in human SH-SY5Y cells. Type of data set: functional, cell-based.
Data set [3] deals with SH-SY5Y. The experiment in a line: Neuroprotective activity against oxygen glucose deprivation-induced neurotoxicity in human SH-SY5Y cells. Type of data set: functional, cell-based.
The subject of data set [4] is SH-SY5Y. Nature of the data set: Cytotoxicity against human SH-SY5Y cells assessed as cell viability by MTT assay. Type of data set: cell-based.
For data set [5], the system named is SH-SY5Y. Nature of the data set: Cytotoxicity against human SH-SY5Y cells assessed as cell proliferation by SRB assay. Type of data set: cell-based. On the technique in general: Sulforhodamine B stains cellular protein and so reports cell mass.
Data set [6] has as its system SH-SY5Y. Nature of the data set: Neuroprotective activity against amyloid beta(25 to 35)-induced neurotoxicity in human SH-SY5Y cells assessed as cell viability at 10 uM by SRB assay. Type of data set: functional, cell-based.

Calls of active or inactive are those of the source. The calls are words filed in the database; no cut-off is given here.

In the case of `Cc1c2n(c3ccccc13)C[C@H](C)O[C@H]2c1ccc(Cl)cc1`, the result in the data set on SH-SY5Y [1], with SH-SY5Y [2] and in the data set with SH-SY5Y [3] was inactive.
Turning to `Cc1c2n(c3ccccc13)C[C@H](C)O[C@@H]2c1coc2ccccc2c1=O`, the outcome with SH-SY5Y [1], in the data set on SH-SY5Y [2] and with SH-SY5Y [3] was inactive.
In the case of `Cc1c2n(c3ccccc13)C[C@H](C)O[C@@H]2c1ccc(C(C)(C)C)cc1`, the viability at 10 µM in the data set on SH-SY5Y [1] was 84.5%. Besides, the outcome with SH-SY5Y [2] and in the data set on SH-SY5Y [3] was inactive.
As for `Cc1c2n(c3ccccc13)C[C@H](C)O[C@@H]2c1cccs1`, the outcome in the data set with SH-SY5Y [1], in the data set on SH-SY5Y [2] and with SH-SY5Y [3] was inactive.
Take `Cc1c2n(c3ccccc13)C[C@H](C)O[C@H]2c1ccc(C(C)(C)C)cc1`: the viability at 10 µM in the data set on SH-SY5Y [1] amounted to 92.1%. Besides, the outcome in the data set with SH-SY5Y [2] and in the data set on SH-SY5Y [3] was inactive. The Activity entry in the data set with SH-SY5Y [4] and in the data set on SH-SY5Y [5] was “Non-toxic” in each case. Besides, the result in the data set on SH-SY5Y [6] was Active.
As to `CCc1ccc([C@H]2O[C@@H](C)Cn3c2c(C)c2ccccc23)cc1`, the viability at 10 µM with SH-SY5Y [1] came to 93%. Further, the result in the data set with SH-SY5Y [2] and with SH-SY5Y [3] was inactive. Moreover, the Activity entry with SH-SY5Y [4] and in the data set on SH-SY5Y [5] was “Non-toxic” each time. Besides, the result with SH-SY5Y [6] was Active.
For `Cc1c2n(c3ccccc13)C[C@@H](C)O[C@H]2c1ccccc1`, the outcome with SH-SY5Y [1], with SH-SY5Y [2] and in the data set on SH-SY5Y [3] was inactive.
Regarding `Cc1c2n(c3ccccc13)C[C@@H](C)O[C@@H]2c1ccccc1`, the outcome in the data set on SH-SY5Y [1], in the data set on SH-SY5Y [2] and in the data set with SH-SY5Y [3] was inactive.
With `Cc1c2n(c3ccccc13)C[C@@H](C)O[C@H]2c1ccc(F)cc1`, the viability at 10 µM in the data set on SH-SY5Y [1] was 90.6%. Also, the outcome in the data set on SH-SY5Y [2] and in the data set on SH-SY5Y [3] was inactive. Further, the Activity result in the data set with SH-SY5Y [4] and with SH-SY5Y [5] was “Non-toxic” throughout. In addition, the result in the data set with SH-SY5Y [6] was Active.
For `Cc1cc(C)cc([C@@H]2O[C@@H](C)Cn3c2c(C)c2ccccc23)c1`, the viability at 10 µM in the data set on SH-SY5Y [1] turned out to be 87.1%. For the same compound, the result in the data set on SH-SY5Y [2] and in the data set on SH-SY5Y [3] was inactive.
Consider `Cc1cccc([C@H]2O[C@@H](C)Cn3c2c(C)c2ccccc23)c1`, for which the result in the data set with SH-SY5Y [1], in the data set on SH-SY5Y [2] and in the data set with SH-SY5Y [3] was inactive.
With `COc1cccc([C@@H]2O[C@@H](C)Cn3c2c(C)c2ccccc23)c1`, the result in the data set on SH-SY5Y [1], with SH-SY5Y [2] and with SH-SY5Y [3] was inactive.
In the case of `COc1cc([C@H]2O[C@@H](C)Cn3c2c(C)c2ccccc23)cc(OC)c1OC`, the outcome with SH-SY5Y [1], in the data set with SH-SY5Y [2] and in the data set with SH-SY5Y [3] was inactive.
For `Cc1ccccc1[C@@H]1O[C@@H](C)Cn2c1c(C)c1ccccc12`, the outcome in the data set on SH-SY5Y [1], with SH-SY5Y [2] and with SH-SY5Y [3] was inactive.
In the case of `COc1ccccc1[C@@H]1O[C@@H](C)Cn2c1c(C)c1ccccc12`, in the data set with SH-SY5Y [1], the viability at 10 µM is 77.7%. The result with SH-SY5Y [2] and in the data set on SH-SY5Y [3] was inactive.
Turning to `Cc1c2n(c3ccccc13)C[C@H](C)O[C@H]2c1ccc(F)cc1`, the result in the data set on SH-SY5Y [1], with SH-SY5Y [2] and in the data set with SH-SY5Y [3] was inactive.
As for `Cc1ccc([C@H]2O[C@@H](C)Cn3c2c(C)c2ccccc23)cc1`, the result in the data set on SH-SY5Y [1], in the data set with SH-SY5Y [2] and with SH-SY5Y [3] was inactive.
Take `Cc1c2n(c3ccccc13)C[C@H](C)O[C@@H]2c1ccc(CC(C)C)cc1`: in the data set with SH-SY5Y [1], the viability at 10 µM amounted to 108%. The outcome in the data set on SH-SY5Y [2] and with SH-SY5Y [3] was inactive. The Activity result in the data set on SH-SY5Y [4] and in the data set with SH-SY5Y [5] was “Non-toxic” throughout. The outcome in the data set with SH-SY5Y [6] was Active.
Take `Cc1c2n(c3ccccc13)C[C@H](C)O[C@@H]2c1ccc(C(F)(F)F)cc1`: the result in the data set with SH-SY5Y [1], in the data set on SH-SY5Y [2] and in the data set on SH-SY5Y [3] was inactive.
For the compound `Cc1c2n(c3ccccc13)C[C@H](C)O[C@H]2c1ccc(C(F)(F)F)cc1`, the outcome with SH-SY5Y [1], in the data set with SH-SY5Y [2] and in the data set with SH-SY5Y [3] was inactive.
With `CCc1ccc([C@@H]2O[C@@H](C)Cn3c2c(C)c2ccccc23)cc1`, the outcome in the data set with SH-SY5Y [1], in the data set on SH-SY5Y [2] and in the data set with SH-SY5Y [3] was inactive.
Take `COc1cccc([C@H]2O[C@@H](C)Cn3c2c(C)c2ccccc23)c1`: the result in the data set on SH-SY5Y [1], in the data set on SH-SY5Y [2] and in the data set with SH-SY5Y [3] was inactive.
`Cc1cccc([C@@H]2O[C@@H](C)Cn3c2c(C)c2ccccc23)c1`: the outcome in the data set with SH-SY5Y [1], in the data set with SH-SY5Y [2] and with SH-SY5Y [3] was inactive.
As for `Cc1c2n(c3ccccc13)C[C@H](C)O[C@H]2c1ccc(CC(C)C)cc1`, the viability at 10 µM in the data set with SH-SY5Y [1] was 96.2%. Moreover, the outcome with SH-SY5Y [2] and in the data set on SH-SY5Y [3] was inactive. In addition, the Activity result in the data set with SH-SY5Y [4] and in the data set on SH-SY5Y [5] was “Non-toxic” in each case. In the data set on SH-SY5Y [6], the outcome was Active.
As to `Cc1c2n(c3ccccc13)C[C@H](C)O[C@@H]2c1ccccc1`, the result with SH-SY5Y [1], in the data set with SH-SY5Y [2] and with SH-SY5Y [3] was inactive.
With `Cc1c2n(c3ccccc13)C[C@H](C)O[C@@H]2c1ccc(Cl)cc1`, the viability at 10 µM in the data set with SH-SY5Y [1] was found to be 74.4%. The result with SH-SY5Y [2] and with SH-SY5Y [3] was inactive.
As to `Cc1c2n(c3ccccc13)C[C@H](C)O[C@H]2c1cccs1`, the outcome with SH-SY5Y [1], in the data set with SH-SY5Y [2] and in the data set on SH-SY5Y [3] was inactive.
Take `Cc1c2n(c3ccccc13)C[C@H](C)O[C@@H]2c1ccc(F)cc1`: the result in the data set on SH-SY5Y [1], in the data set on SH-SY5Y [2] and with SH-SY5Y [3] was inactive.
`O=C(O[C@@H]1Cc2c(O)cc(O)cc2O[C@@H]1c1cc(O)c(O)c(O)c1)c1cc(O)c(O)c(O)c1` [EPIGALOCATECHIN GALLATE]: the viability at 10 µM in the data set on SH-SY5Y [1] worked out at 98.6%.
Turning to `COc1ccccc1[C@H]1O[C@@H](C)Cn2c1c(C)c1ccccc12`, the result in the data set on SH-SY5Y [1], with SH-SY5Y [2] and in the data set with SH-SY5Y [3] was inactive.
`Cc1c2n(c3ccccc13)C[C@@H](C)O[C@@H]2c1ccc(F)cc1`: the result in the data set on SH-SY5Y [1], in the data set on SH-SY5Y [2] and with SH-SY5Y [3] was inactive.
Turning to `Cc1ccccc1[C@H]1O[C@@H](C)Cn2c1c(C)c1ccccc12`, the result with SH-SY5Y [1], in the data set on SH-SY5Y [2] and in the data set on SH-SY5Y [3] was inactive.
Regarding `COc1cc([C@@H]2O[C@@H](C)Cn3c2c(C)c2ccccc23)cc(OC)c1OC`, the outcome with SH-SY5Y [1], in the data set on SH-SY5Y [2] and with SH-SY5Y [3] was inactive.
On to `Cc1cc(C)cc([C@H]2O[C@@H](C)Cn3c2c(C)c2ccccc23)c1`, for which the result with SH-SY5Y [1], in the data set on SH-SY5Y [2] and in the data set with SH-SY5Y [3] was inactive.
On to `Cc1c2n(c3ccccc13)C[C@H](C)O[C@H]2c1ccccc1`, for which the result in the data set on SH-SY5Y [1], in the data set on SH-SY5Y [2] and in the data set on SH-SY5Y [3] was inactive.
In the case of `Cc1ccc([C@@H]2O[C@@H](C)Cn3c2c(C)c2ccccc23)cc1`, the result in the data set on SH-SY5Y [1], with SH-SY5Y [2] and with SH-SY5Y [3] was inactive.
